Source: US20240292836A1, “AGENTS FOR REPELLING, KNOCKING DOWN, AND/OR KILLING BLOOD-SUCKING ARTHROPODS AND USES THEREOF” (The United States of America, as represented by the …, priority 2023, published 2024)
Values joined by “and” are separate entries in the source; they are usually repeats but may differ in a detail not shown here. Equal entries are not always repeated.

How the values were obtained:
[1] = system: female Aedes aegypti adults; assay: Arm-in-cage cloth-patch in vivo assay (topical repellency); details: for Minimum Effective Dose (MED): Mean ± SEM, lowest dosage with five or fewer bites through repellent-treated cloth in 1-minute exposure, at least three volunteers; for topical repellency (in words): initial screening dose of 0.187 mg/cm^2
Description: Arm-in-Cage Test Cloth-Patch in vivo Assay Pyrethroid-susceptible yellow fever mosquitoes Ae. aegypti (Orlando strain) were reared in the United States Department of Agriculture Mosquito and Fly Research Unit in Gainesville, FL under standard protocols. Three to seven-day-old, starved female mosquitoes were collected using a “draw box” (Posey, K. and Schreck, C. E, 1981, “An airflow apparatus for selecting female mosquitoes for use in repellent and attraction studies” Mosquito News 41: 566-568; US. Department of Agriculture, 1977, Repellent activity of compounds submitted by Walter Reed Army Institute of Research. Part 1. Protection time and minimum effective dosage against Aedes aegypti mosquitoes. Tech. Bull. No. 1549) and were placed in cages at an approximate density 200 mosquitoes/cage. Repellency was determined according to a standard protocol (Bernier, U. R., et al, 2022. “Evaluation and application of repellent-treated uniform/clothing and textiles against vector mosquitoes,” In Advances in Arthropod Repellents (pp. 69-94). Academic Press) and reported as the minimum effective dosage (MED). […] A nylon leg stocking was placed over the arm to prevent direct contact of the repellent-treated cloth patch with the skin. […]. Cloth was treated by placing a rolled bandage (50 cm^2) into each vial containing 1 mL of solution and allowing the patch to absorb the solution completely. The cloth was taped over a 4 by 9-cm opening cut into a vinyl plastic sheet that was draped around the volunteers' arms and taped in place. The cloth was air-dried approximately 15 min before conducting each test. The work reported here is an average of the MED for at least three volunteers. Each volunteer covered his or her arm with a nylon stocking to avoid contact between the skin and the treated cloth and wore a rubber glove to prevent mosquito bites on the hand.
. The minimum effective dose (MED) was determined for each repellent and subject, defined as the lowest concentration that prevents biting). MEDs from each subject were pooled and reported as the average among all replicates/subjects with SEM. A minimum of 3 replicates were performed on at least three human subjects. Written informed consent was obtained for all human subjects used in this study in accordance with IRB protocol #20193320, as approved by the WCG™ IRB.
(§1) Statistical Analyses: Student's T-test was used to compare the means between tested compound and DEET and Icaridin in the arm-in-cage in vivo assay and neurophysiological study.

[2] = system: female Aedes aegypti adults; assay: High-throughput in vitro screening assay, spatial repellency; assay type: in vivo; details: for 30-minute RD50 compared with that of DEET: 30 minutes, α = 0.05; for RD50 (30 min), half-repellent dose / RD50 (60 min), half-repellent dose: dose per filter paper surface area, 95% CI; for spatial repellency (in words): highest-tested dose of 100 μg/cm^2
Description: A high-throughput screening method for evaluating spatial repellency and vapor toxicity, described by Jiang S., et al. (2019, “High-Throughput Screening Method for Evaluating Spatial Repellency and Vapour Toxicity to Mosquitoes,” Med. Vet. Entomol. 33: 388-396), was used for this study. As shown in FIG. 2 of Jiang S., et al., assay tubes were constructed by covering 12.5 cm glass tubes on one side with netting secured by a rubber band. The tubes were used in horizontal orientation. Adult mosquitos 2-7 days old were anesthetized on ice for approximately 5 minutes and 16 females were transferred to each tube. The other end of the tube was then closed with netting and a rubber band.
The conical ends of 50 mL centrifuge tubes (Eppendorf, Enfield, Connecticut, USA) were cut at approximately the 10 mL mark to create the end caps for the assay tubes. […] For repellency tests, filter papers for the “untreated” side of the assay tube received pure acetone, whereas filter papers for the “treated” side received acetone solution containing a dissolved compound of interest. For knockdown tests, both filter papers were treated with acetone solution containing one or more compounds of interest. Acetone on both filter papers served as negative controls.
For repellency assays, filter papers were given 10 minutes of evaporation time before being placed into the end caps with forceps (Jiang S., et al. 2019, Supra). For knockdown assays, filter papers were given 5 minutes of evaporation time before being placed into the end caps. […] Assay tubes were capped such that the cap securely overlapped the glass but approximately 5 mm of space was left between the netting and the filter paper so that the mosquitos could not contact the filter paper.
Assay tubes were placed on a white polystyrene platform with wooden sticks glued flatly across it to prevent the tubes from rolling. A straight black line was drawn down the center of the platform and assay tubes were centered on the line at the beginning of the tests. In repellency assays, data were collected at 15, 30, and 60 minutes after the end caps were placed on the assay tubes. Assay tubes were not disturbed for the entire 60 minutes. At each time point, the number of mosquitos that remained on the treated side was visually assessed and recorded. The treated side was alternated with each set of tests. For repellency tests, DEET at a dose of 100 μg/cm^2 served as the positive control.
For the high-throughput in vitro screening assays, analyses were conducted with R version 4.2.2 statistical software (R Core Team, 2022, “R: a language and environment for statistical computing. R foundation for statistical computing,” Vienna, Austria). Concentrations were calculated in terms of filter paper surface area (μg/cm^2) for repellency assays and in terms of assay tube volume (μg/cm^3) for knockdown assays.
Half-repellent (RD50), half-knockdown (KD50), and half-lethal (LD50) doses were calculated from dose-response curves (DRCs) obtained by four-parameter log-logistic equation models generated using the drc package (Dose Response Curve Analyses Software; Ritz C. et al., 2015, “Dose-response analysis using R,” PLOS ONE 10: e0146021). For repellency test analysis, the upper and lower asymptotes for the proportion of mosquitos remaining on the treated side were fixed at 0.5 and 0, respectively. For KD and mortality test analysis, the upper and lower asymptotes for the proportion of mosquitos knocked down or killed were fixed at 1.0 and 0, respectively. To determine whether RD50, KD50, or LD50 values differed across compounds at each timepoint, a joint model assuming different values for each compound and a null model that assumed a single value for all compounds were compared with a likelihood ratio test.

[3] = system: female Aedes aegypti adults; details: estimated from a previous report (Licciardi 2006); cited from earlier work
[4] = system: female Aedes aegypti adults; assay: High-throughput in vitro screening assay, knockdown and mortality; details: for KD50 (30 min), half-knockdown dose / KD50 (60 min), half-knockdown dose: dose per assay tube volume, 95% CI; for knockdown and mortality activities (in words): in vivo
[5] = system: Aedes aegypti larvae central nervous system; assay: Neurophysiological experiment, nerve firing of mosquito central nervous system
Description: Neurophysiological Experiment—Action on Mosquito Central Nervous System All compounds were screened at 100 μM on the central nervous system of 4th instar Aedes aegypti larvae. Nerve firing was reported as the percentage firing compared to a pre-application baseline period that was determined approximately 3 minutes prior to drug application, similar to methods outlined in Norris, E. J. and Bloomquist J. R. (2021, “Recording central neurophysiological output from mosquito larvae for neuropharmacological and insecticide resistance studies,” J. Insect Physiol. 135: 104319). […] Compound potency was characterized by “time-to-nerve block” defined as the first time point where significant nerve block was observed compared to the vehicle control via a Student T-test, p<0.05 as shown in Table 1 and FIG. 2.
as §1

[6] = at 25.00° C.; cited from earlier work
Vapor pressure = assay type: physicochemical; details: MFA versus MDMA
[7] = literature evaluations; cited from earlier work

Compound	Minimum Effective Dose (MED) [1]	mosquitoes repelled ([2]; 60 minutes, dose of 100 μg/cm^2) [%]	dose at which knockdown might begin [3]	KD50 (30 min), half-knockdown dose [4] [µg/mL]	KD50 (60 min), half-knockdown dose [4] [µg/mL]	30-minute RD50 compared with that of DEET [2]	Time to nerve block ([5]; 100 μM on central nervous system of 4th instar larvae) [min]	RD50 (30 min), half-repellent dose [2] [μg/cm^2]	vapor pressure [6] [mmHg]	RD50 (60 min), half-repellent dose [2] [μg/cm^2]	spatial repellency (in words) [2]	vapor pressure, times lower than that of MDMA (Vapor pressure) [times]	safety (in words) [7]	topical repellency (in words) [1]	time at which knockdown began ([4]; FIG. 6A, 6B, 6D) [min]	knockdown and mortality activities (in words) [4]	nerve block (in words) ([5]; 100 μM, 4th instar larvae)
CCN(CC)C(=O)c1cccc(C)c1 [DEET, N,N-diethyl-meta-toluamide, reference compound]	0.0100±0.003 mg/cm^2 and 0.0100 mg/cm^2	100	approximately 15 μg/cm^3	>15	>15	–	–	–	–	–	–	–	–	–	–	–	–
COC(=O)c1ccccc1OC [M2MOB, methyl 2-methoxybenzoate]	0.049 mg/cm^2	–	–	>7	>7	not significantly different from that of DEET	24	–	–	–	–	–	–	–	–	–	–
COC(=O)c1ccccc1N(C)C [MDMA, methyl N,N-dimethyl anthranilate]	0.039 mg/cm^2	–	–	–	–	significantly lower than that of DEET	–	6.58	0.01	–	–	–	–	–	–	–	–
COC(=O)c1ccccc1NC=O [MFA, methyl N-formylanthranilate]	0.047 mg/cm^2	–	–	–	–	–	–	>100	0.000013	>100	did not show spatial repellencies	769	No adverse effects to humans have been found	–	–	–	–
CCCCOC(=O)c1ccccc1 [nBB, n-butyl benzoate]	0.148 mg/cm^2	–	–	–	3.09	–	–	>100	–	>100	did not show spatial repellencies	–	–	demonstrated repellency at doses lower than 0.187 mg/cm^2 on at least one test subject	5	exhibited considerable knockdown and mortality activities	–
CCCCCCOC(=O)c1ccccc1 [nHB, n-hexyl benzoate]	>0.187 mg/cm^2	–	–	7.06	4.72	not significantly different from that of DEET	–	–	–	–	–	–	–	did not show any topical repellencies	–	exhibited considerable knockdown and mortality activities	–
CCCCCOC(=O)c1ccccc1 [nPeB, n-pentyl benzoate]	>0.187 mg/cm^2	–	–	4.77	3.98	not significantly different from that of DEET	–	–	–	–	–	–	–	did not show any topical repellencies	–	exhibited considerable knockdown and mortality activities	Nerve block was produced by all compounds screened at this concentration, except for compound nPeB
